Legend:
[1] = test system: bone marrow hematopoietic stem cells; test: in vivo test of LMH001 on bone marrow hematopoietic stem cell proliferation (MTS assay); conditions: 2.2 mg/kg/day intra-peritoneal for two weeks, compared to vehicle injected controls, n=8 mice/per group
Description: FIG. 3 is a graph showing the effect of LMH001 (2 week, IP injection) on bone marrow hematopoietic stem cell proliferation in mice. Wild-type mice (C57BL6/J) at 5 months of age were injected intra-peritoneal with LMH001 at 2.2 mg/kg/day for two weeks. Bone marrow hematopoietic stem cells were isolated and test for cell proliferation by a MTS assay kit (Promega).
On the day of experiment, primary hematopoietic bone marrow cells were obtained from wild-type male C57BL/6 mice as described previously (11). Briefly, 12-16 week old mice were sacrificed by cervical dislocation and their hind legs dissected and carefully cleaned from adherent tissues. Next, the ends of each bone were removed to expose the marrow and this was collected by flushing the femurs and tibias using a 25 gauge needle loaded with Dulbecco's PBS. […]
The ex vivo proliferative capabilities of isolated BMSC or cultured cells were analyzed using the MTS proliferation assay. […] After 24 hours in culture medium containing LMH001 (0-10 μM), proliferation was assessed using the MTS (CellTiter 96 AQ; Promega, Madison, USA) assay according to the manufacturer's protocol. The absorbance at 490 nm was read using an ELISA plate reader (Perkin elmer), and the proliferation index calculated relative to the controls. The mean of 3 blank readings was subtracted from each corrected value. […]

[2] = test system: human lung alveolar epithelial cancer cells (A549 cells); test: EGF-induced O2.- production in A549 cells, lucigenin-chemiluminescence; type: cell-based; conditions: LMH001 5 μM, 24 h
Description: (§1) A549 cells were seeded at equal number the day before experiments and then stimulated with or without […] (EGF, 10 ng/ml) for 24 h in the presence or absence of LMH001 (5 μM). Cells were then trypsinized and counted. Cell homogenates were used for measuring O2.^− production by lucigenin-chemiluminescence in the presence of NADPH (100 μM).
(§2) A549 is a human lung adenocarcinoma epithelial cell line. A549 cells were grown in DMEM, containing 10% (v/v) heat inactivated foetal calf serum, 100 U/mL penicillin and […] streptomycin, in a humidified atmosphere at 37° C. with 5% CO2.
O2^− production by different cell types was measured using lucigenin (5 μM)-chemiluminescence. A microplate luminometer (LumiStar, BMG) was used, which allows the examination of 96 samples at the same time with kinetic reading facilities. […] Dark-adapted lucigenin (5 μM) was added into the well through an auto-dispenser located in the dark chamber just before reading. The light emission was recorded over a 60 minute period and expressed as arbitrary MLU measured by the illuminometer. Each experiment was performed in triplicate and the mean of 3 blank readings was subtracted from each corrected value for each reading. […]

[3] = test system: human lung alveolar epithelial cancer cells (A549 cells); test: EGF-induced cell proliferation of A549 cells (cell counting); type: cell-based; conditions: LMH001 5 μM, 24 h
Description: as §1, §2

HL-60 cells = test: normal cell proliferation, MTS assay, HL-60; type: cell-based, human; conditions: HL-60, LMH001 up to 10 μM, 6, 12 and 24 h of culture
Description: A) SVEC4-10 cells and HepG2 cells were cultured in the presence or absence of LHM001 (0-10 μM) for 24 h and tested for cell proliferation using a MTS assay kit. B) HL-60 cells were cultured in the presence or absence of LMH001 (0-10 μM), and cell proliferation was examined at 6, 12 and 24 h of culture.
HL-60 is a human promyelocytic leukaemia cell line. The HL60 cells were grown in RPMI 1640 medium; containing 10% (v/v) heat inactivated foetal calf serum, 100 U/mL penicillin and […] streptomycin, in a humidified atmosphere at 37° C. with 5% CO2. HL60 cells were differentiated to the human neutrophils by culturing the cells in the culture medium in the presence of 1.25% v/v DMSO for 6 days before being used for the experiments.
The ex vivo proliferative capabilities of isolated BMSC or cultured cells were analyzed using the MTS proliferation assay. […] After 24 hours in culture medium containing LMH001 (0-10 μM), proliferation was assessed using the MTS (CellTiter 96 AQ; Promega, Madison, USA) assay according to the manufacturer's protocol. The absorbance at 490 nm was read using an ELISA plate reader (Perkin elmer), and the proliferation index calculated relative to the controls. The mean of 3 blank readings was subtracted from each corrected value.

[4] = no EGF, compared to medium only

O=C(OCc1cccc(O)c1O)c1ccc(O)c(CO)c1 [LMH001, (2,3,-dihydroxyphenyl)methyl 4-hydroxy-3-(hydroxymethyl)benzoate]
toxic effect on bone marrow hematopoietic stem cell proliferation [1]: no toxic effect | EGF-induced O2.- production ([2]; EGF 10 ng/ml): inhibited completely | A549 cell O2.- production, LMH001 alone [2, 4]: no significant effect | EGF-induced A549 cell proliferation ([3]; EGF 10 ng/ml, cells counted): inhibited completely | A549 cell proliferation, LMH001 alone [3, 4]: no significant effect | normal cell proliferation under physiological condition (HL-60 cells): no significant effect
